In ChEMBL document CHEMBL1201862, “PubChem BioAssay data set” (2004):
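A five-concentration, 48-hour dose response in 96-well plates underlies each endpoint, interpolated linearly between surrounding concentrations. Abbreviation: GI50, concentration required for 50% inhibition of growth.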 Active and inactive are the calls of the source. Cut-off read from the data, not from the text of the source: active = GI50 up to about 1.1 µM and inactive = higher. Square brackets hold non-standard residues; d marks the D form. Peptide text beside a SMILES is read from it. * marks the point of attachment. X26 = COC1=CC(=O)N(C(=O)[C@@H](O*)C(C)C)[C@H]1Cc1ccccc1; NMeV = CN[C@H](C(=O)O)C(C)C; Hexanoyl = CCCCCC(=O)*

Legend:
Assay in all cases: growth of human tumour cells (NCI), 48 h
BT-549 = system: BT-549
DMS-273 = system: DMS-273
DLD-1 = system: DLD-1
HOP-18 = system: HOP-18
LXFL 529 = system: LXFL 529
KM-20L2 = system: KM-20L2
DMS-114 = system: DMS-114
XF498 = system: XF498
RXF 631 = system: RXF 631

Structure (SMILES) | GI50 (BT-549) | GI50 (DMS-273) | GI50 (DLD-1) | GI50 (LXFL 529) | GI50 (KM-20L2) | GI50 (DMS-114) | further results
CCOC(=O)c1cn2c(n1)sc1c(Cl)c(Cl)ccc12 | 33 µM (inactive) |  |  |  |  |  | 
CCOC(=O)c1c(-c2[nH]c(C(=O)OCc3ccccc3)c(C)c2C(=O)OCC)[nH]c(C(=O)OCc2ccccc2)c1C |  | > 100 µM (inactive) | > 100 µM (inactive) | > 100 µM (inactive) | > 100 µM (inactive) | > 100 µM (inactive) | GI50 (HOP-18): > 100 µM (inactive)
Cc1cc(C)cc(Nc2cc(O)nc(O)n2)c1 | > 100 µM (inactive) |  |  |  |  |  | 
O=C1C=CC(=O)c2c1ccc1c3ccccc3n(CCCCCCCCn3c4ccccc4c4ccc5c(c43)C(=O)C=CC5=O)c21 | > 100 µM (inactive) |  |  |  |  |  | 
N=C1CSC2=NC3=C(CCC/C3=C\c3ccccc3)C(c3ccccc3)N12 (configuration not stated) |  | 3.8 µM (inactive) | 5.4 µM (inactive) | 4.89 µM (inactive) | 4.37 µM (inactive) | 2.8 µM (inactive) | GI50 (XF498): 20.7 µM (inactive)
CC1=C(C(=O)Nc2ccccc2)C(c2cccc3ccccc23)C(C(=O)Nc2ccccc2)=C(C)N1 |  | 19.1 µM (inactive) | 28.2 µM (inactive) | 15.9 µM (inactive) | 19.3 µM (inactive) | 24.9 µM (inactive) | GI50 (HOP-18): 24 µM (inactive)
COc1ccc(-c2cc(=O)c3cc(O)ccc3o2)c(OC)c1OC |  |  | 36.4 µM (inactive) | 30.6 µM (inactive) | 19.3 µM (inactive) | 27.9 µM (inactive) | GI50 (RXF 631): 33.2 µM (inactive); GI50 (XF498): 30.5 µM (inactive)
C[C@H]1O[C@@H](C(C)(C)C)OC(=O)[C@@H]1C(OC(=O)c1ccccc1)c1cccc2ccccc12 (some centres not stated) | > 100 µM (inactive) |  |  |  |  |  | 
COc1ccc(-c2csc(Cc3nc4ccccc4c(=O)n3-c3ccc(Cl)cc3)n2)cc1 | 45 µM (inactive) |  |  |  |  |  | 
COC(=O)[C@@H]1[C@H](O)[C@H](C)[C@H](O)[C@H](C)/C=C\C=C(\C)C(=O)Nc2c(C)c(OC(C)=O)c3c(c2O)C(=O)C(C)=C2OCOC(=C23)/C(C)=C/[C@@H](O)[C@H](O)[C@@H](C)[C@H]1OC(C)=O | > 100 µM (inactive) |  |  |  |  |  | 
Cc1ccc(S(=O)(=O)NC(=O)NC(Cc2c[nH]c3ccccc23)C(=O)O)cc1 (configuration not stated) | > 100 µM (inactive) |  |  |  |  |  | 
CCC1C(C)c2c([nH]c3ccccc23)C2C(=O)N(c3ccccc3)C(=O)C21 (configuration not stated) |  | 17.8 µM (inactive) | 10.6 µM (inactive) | 19.6 µM (inactive) |  | 13.4 µM (inactive) | GI50 (RXF 631): 13.5 µM (inactive); GI50 (XF498): 21.5 µM (inactive)
C=CN1CCN(c2ccccc2)P1(=O)Oc1ccccc1 (configuration not stated) | > 100 µM (inactive) |  |  |  |  |  | 
O=C1C=C(c2c(-c3ccccc3)[nH]c3ccccc23)C(=O)N1c1ccccc1 | 6.73 µM (inactive) |  |  |  |  |  | 
Cc1ccnc2nc(-c3ccc4ccccc4c3)cc(O)c12 | 5.32 µM (inactive) |  |  |  |  |  | 
Cc1cccc2sc(NC(=O)c3cc([N+](=O)[O-])ccc3Cl)nc12 | 2.44 µM (inactive) |  |  |  |  |  | 
NCCCN1c2ccccc2Sc2ccc(Cl)cc21 | > 7.62 µM (inactive) |  |  |  |  |  | 
CC1=NC2(C(=O)O)C3(C(=O)O)N=C(C)OC3(C(F)(F)F)C2(C(F)(F)F)O1 (configuration not stated) |  | > 100 µM (inactive) | > 100 µM (inactive) |  | > 100 µM (inactive) | > 100 µM (inactive) | GI50 (XF498): > 100 µM (inactive); GI50 (HOP-18): > 100 µM (inactive)
COC(=O)C1=C(C(=O)OC)c2cc(OC)ccc2C(C(=S)N(C)C)S1 (configuration not stated) | 19.2 µM (inactive) |  |  |  |  |  | 
CC(C)OP(=O)(OC(C)C)/C(=N/Nc1ccc([N+](=O)[O-])cc1)Nc1ccccc1 |  | 25.3 µM (inactive) | 28.1 µM (inactive) | 19.5 µM (inactive) | 24.2 µM (inactive) | 20.4 µM (inactive) | GI50 (XF498): 22.2 µM (inactive)
Cc1cnc2[nH]c(-c3ccccc3)cc(=O)c2c1 | 0.0306 µM (active) |  |  |  |  |  | 
C#Cc1c(C)c(/C=C/C(C)=C/C(=O)OC)n(C)c1C |  | 88.7 µM (inactive) | 79.4 µM (inactive) | 99.8 µM (inactive) | 87.7 µM (inactive) | 36.1 µM (inactive) | GI50 (XF498): 77.3 µM (inactive); GI50 (HOP-18): > 100 µM (inactive)
O=C(NCCCCN(CCCNC(=O)C(F)(F)F)Cc1ccccc1)C(F)(F)F | > 100 µM (inactive) |  |  |  |  |  | 
Cc1cnc2sn(-c3ccc(Oc4ccccc4)cc3)c(=O)c2c1 | 23.8 µM (inactive) |  |  |  |  |  | 
N#CCC(=O)N1CCCOCCC1 |  | > 100 µM (inactive) | > 100 µM (inactive) | > 100 µM (inactive) | > 100 µM (inactive) | > 100 µM (inactive) | GI50 (RXF 631): > 100 µM (inactive)
COc1ccc(/N=C\c2ccc(N(CCC#N)CCC#N)cc2)cc1 | > 38.9 µM (inactive) | 31.4 µM (inactive) | 24.9 µM (inactive) | 7.11 µM (inactive) | 9.68 µM (inactive) | 27.5 µM (inactive) | GI50 (XF498): > 100 µM (inactive); GI50 (HOP-18): > 100 µM (inactive)
CCCCCC(=O)N[C@H](C(=O)N[C@H](C(=O)N(C)[C@H](C(=O)N1CCC[C@H]1C(=O)N1CCC[C@H]1C(=O)O[C@H](C(=O)N1C(=O)C=C(OC)[C@@H]1Cc1ccccc1)C(C)C)C(C)C)C(C)C)C(C)C (Hexanoyl-VV[NMeV]PP-X26) | 59.8 µM (inactive) |  |  |  |  |  | 
CC(C)N1CN(C(C(=O)N[C@@H]2C(=O)N3C2SC(C)(C)C3C(=O)O)c2ccc(O)cc2)CSC1=S (some centres not stated) |  | > 100 µM (inactive) | > 100 µM (inactive) | > 100 µM (inactive) | > 100 µM (inactive) | > 100 µM (inactive) | GI50 (XF498): > 100 µM (inactive); GI50 (HOP-18): > 100 µM (inactive)
